Earlier results, collected in patent publication US20090274673A1, “COMPOSITION FOR TOPICAL TREATMENT OF ACNE” (priority 2008, published 2009).

Key:
[1] = system: species of Fusarium, Gerlacia, Penicillium, and Aspergillus
Saccharomyces cerevisiae = conditions: against Saccharomyces cerevisiae
Candida albicans = conditions: against Candida albicans (a yeast-like fungus)
[2] = system: Staphylococcus epidermidis; conditions: against Staphylococcus epidermidis
[3] = system: hyper-permeable strains of Escherichia coli SC10909 and BAS847; conditions: agar plate diffusion; hyper-permeable E. coli SC10909 and BAS847
Proteus vulgaris = conditions: agar plate diffusion
Bacillus thuringiensis = conditions: agar plate diffusion
Staphylococcus aureus = conditions: agar plate diffusion
protein synthesis = conditions: prokaryotes versus eukaryotes
HIV = conditions: virus incubated with zinc acetate

In the case of Iturin A, the growth inhibition [1] is listed as “inhibits the growth”.

For `C/C(=C/C=C/C=C/C(C)C(=O)O)NC(=O)CC(O)\C(C)=C/C=C\C=C(C)\C=C\C=C/C=C/CNC(=O)C(O)CC(C)C` (centres unmarked) [bacillaene], the inhibitory effect (Saccharomyces cerevisiae) is given as “ineffective”, the inhibitory effect (Candida albicans) is given as “ineffective” and the inhibitory effect [2] is given as “ineffective”. The inhibitory effect [3] was “potent”, the inhibitory effect (Proteus vulgaris) was “moderately potent” and the inhibitory effect (Bacillus thuringiensis) was “moderately potent”. For the same compound, the inhibitory effect (Staphylococcus aureus) was “moderately potent”, the growth inhibition (Streptomyces avermitilis) was “inhibit the growth” and the “selectivity of protein synthesis inhibition” value (protein synthesis) was “inhibiting protein synthesis only in prokaryotes and not in eukaryotes”.

For `CC(=O)[O-].CC(=O)[O-].[Zn+2]` [zinc acetate], the HIV infectivity (HIV) is listed as “reduced”.
